Laboratory results: PubChem BioAssay (NCI)
Where “and” joins values, the source holds several entries; their conditions need not be identical. Identical values can stand only once.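 Grown in 96-well plates, cells were treated for 48 hours with each compound at five concentrations. Insufficient inhibition: endpoint recorded as highest concentration tested. GI50: concentration for 50% inhibition of growth. The concentration for full growth arrest is given as TGI.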

How the values were obtained:
Assay in all cases: DTP human tumour cell line panel, 48 h
[1] = tested on: OVCAR-3 ovarian
[2] = tested on: BT-549 breast
[3] = tested on: MDA-MB-231 breast
[4] = tested on: HOP-62 NSCLC
[5] = tested on: SK-MEL-5 melanoma
[6] = tested on: MCF7 breast
[7] = tested on: SNB-19 CNS
[8] = tested on: SR leukemia
[9] = tested on: A498 renal
[10] = tested on: DU-145 prostate

Compound	GI50 [1] [µM]	TGI [1] [µM]	GI50 [2]	TGI [2] [µM]	GI50 [3] [µM]	TGI [3] [µM]	GI50 [4]	TGI [4]	GI50 [5]	TGI [5]	GI50 [6]	TGI [6]	GI50 [7] [µM]	TGI [7] [µM]	GI50 [8] [µM]	TGI [8] [µM]	TGI [9]	GI50 [9] [µM]	GI50 [10] [µM]	TGI [10] [µM]
CC(=O)Oc1ccc2c(c1)[C@@]1(C)CCCC(C)(C)[C@@H]1CC2	15.8	41.1	36.5 µM	> 100	17.8	34.2	15.9 µM	30.2 µM	30.9 µM	73.6 µM	34.6 µM	> 100 µM	19.6	39.4	> 100	> 100				
Cc1coc2c1C(=O)C(=O)c1ccccc1-2		3.29						3 µM		1.92 µM						4.78	3.25 µM			
Cn1c(=O)nc2n(-c3ccc(Cl)cc3)c(-c3ccccc3)c(-c3ccccc3)nc-2c1=O		82.1						66.7 µM		53.5 µM				> 100			> 100 µM			
N#Cc1cnc2cc(OC[C@@H](O)CO)c(NC(=O)C3CCCC3)cc2c1Nc1ccc(OCc2cccc(F)c2)c(Cl)c1	0.874	1.82	1.09 µM	2.89	0.74	1.82	1.03 µM	2.62 µM	7.72 µM	17.5 µM			3.69	> 50	1.24	> 50	13.4 µM	2.78	0.712	1.42
COC(=O)c1cccc2c3ccccc3c3ccccc3c12		56						> 100 µM		> 100 µM				> 100		87.7	50 µM			
C/C(=N\NC(N)=S)c1ccc(C)c(C)c1		66.7						> 100 µM		> 100 µM						> 100	> 100 µM			
CCCCCCCCOCC(O)CO (stereo unspecified)		> 100						> 100 µM		> 100 µM				> 100		> 100	> 100 µM			
O=C1C(=C2CCCC2)CCC1CN1CCCCC1 (stereo unspecified)		30.6								34.1 µM				> 100		47.1	35.7 µM			
N#Cc1c(-c2ccccc2)cc(-c2ccc(N)cc2)[nH]c1=O		> 100						> 100 µM		> 100 µM				> 100		> 100	> 100 µM			
CC(C)(C)OP(=O)(OC(C)(C)C)C(O)c1ccc(/C=C(\C#N)C(N)=O)cc1 (stereo unspecified)		> 100						> 100 µM						> 100			> 100 µM			
COc1ccc(C(C)c2cc(OC)c(OC)c(OC)c2)cc1 (stereo unspecified)	0.0889	0.384	0.223 µM	> 50	0.341	> 50	0.259 µM	> 50 µM	0.13 µM	12.8 µM			0.221	> 50	0.0303	> 50	> 50 µM	0.125	0.198	> 50
COc1cc(-n2cc(-c3ccccc3)[nH]c2=O)cc(OC)c1OC	23.2	> 100			37.2	> 100	39.1 µM	> 100 µM	39.4 µM	> 100 µM	44.9 µM	> 100 µM	30.9	> 100	> 100	> 100	> 100 µM	35.1		
COC(=O)CCC(=O)N1C/C(=C\c2ccccc2)C(=O)/C(=C/c2ccccc2)C1		5.01						28.7 µM		5.44 µM				14.5		12.2	4.45 µM			
Nc1ncnc2c1ncn2C1OC(COS(N)(=O)=O)C(O)C1O (stereo unspecified)			0.00266 µM and 0.0266 µM		< 0.001				0.00177 µM and 0.0175 µM	0.00336 µM and 0.0321 µM			< 0.001		< 0.001	0.0136	0.0344 µM	0.0164	< 0.001	
CC[C@@]1(OC(=O)C(N)CCCCN)C(=O)OCc2c1cc1n(c2=O)Cc2cc3ccccc3nc2-1 (stereo partly specified)		2.37		10.9		> 100		0.0667 µM		0.184 µM				12.2		< 0.0217	0.455 µM			0.25
CCC/C=C\C=C\C1(NS(=O)(=O)c2ccc(C)cc2)CCC(C(C)(C)C)CC1 (stereo unspecified)		21.9						56.7 µM		33.3 µM				> 100		14.8	46.4 µM			
CNC(=O)c1cc(Oc2cccc3nc(NC(=O)Nc4cc(C(F)(F)F)cc(C(F)(F)F)c4)ccc23)ccn1	4.07	21.3	11.4 µM	55.6			3.37 µM	10.4 µM	6.2 µM	24.2 µM	7.43 µM	66.6 µM	5.31	38	13	> 100	5.02 µM	1.99	6.29	65.9
CC1=CC(C)(c2c[nH]c3ccccc23)CC(C)(C)c2c1[nH]c1ccccc21 (stereo unspecified)		28.6						79.7 µM						74.7		32	37.8 µM			
CCC1C(C)C=NN1c1nc(N)nc(C(C#N)=Nc2ccc(N(C)C)cc2)n1 (stereo unspecified)	10.1	21.8			11.4	30.9	18.8 µM	> 50 µM	9.09 µM	17.1 µM	9.76 µM	17.8 µM	> 50	> 50	9.56	> 50			9.32	17.4

Compound	GI50 [1] [µM]	TGI [1] [µM]	GI50 [2]	TGI [2] [µM]	GI50 [3] [µM]	TGI [3] [µM]	GI50 [4]	TGI [4]	GI50 [5]	TGI [5]	GI50 [6]	TGI [6]	GI50 [7] [µM]	TGI [7] [µM]	GI50 [8] [µM]	TGI [8] [µM]	TGI [9]	GI50 [9] [µM]	GI50 [10] [µM]	TGI [10] [µM]
CN(C)CCC(/C=C/c1ccccc1)=N\Nc1ccc(Cl)c(Cl)c1		16.8						13.3 µM		8.96 µM				20.2		5.34	13.8 µM			
O=[P+](O)c1ccccn1		> 100						> 100 µM		> 100 µM				> 100			> 100 µM			
C[C@H]1C/C=C/[C@H]2[C@@H]3O[C@]3(C)[C@@H](C)[C@H]3[C@H](Cc4ccccc4)NC(=O)[C@]32OC(=O)O/C=C/[C@@](C)(O)C1=O	0.025					3.36	0.0125 µM and 0.025 µM	0.185 µM and 0.164 µM and 0.067 µM	0.0539 µM and 0.0351 µM		0.0125 µM and 0.025 µM	64.4 µM and 125 µM and 67.2 µM	0.0174				0.0665 µM and 0.527 µM	0.0126		
C1OC1CN1CCN(CC2CO2)CC1 (stereo unspecified)		> 100						69.7 µM		> 100 µM				> 100		23.3	> 100 µM			
CCOC(=O)C(=O)Nc1cc(Cl)c(Cl)cc1Cl		> 100						> 100 µM		> 100 µM				> 100						
CCOC(=O)C1C=C2O[C@@H]3OC4(CCCCC4)O[C@@H]3C2C2C(=O)CCC(=O)[C@@]12C(=O)OC (stereo partly specified)		> 100						> 100 µM		> 100 µM				> 100			> 100 µM			
CC(C)(C)c1cc(C(=O)Nc2ccc(C(=O)NCCN)cc2)cc(C(C)(C)C)c1	2.18	4.97	13.1 µM	33.6			4.5 µM	21.8 µM	1.74 µM	3.15 µM			3.65	16.6	1.47	4.82	26 µM	8.27	3.46	12.4
O=c1c2cc(Br)cc(Br)c2nc(CCCl)n1-c1ccc(O)c([N+](=O)[O-])c1		33.7						33 µM		35.6 µM				38.2		65.4	52 µM			
Cc1cccc(C)c1NC(=O)CCc1nnc2s/c(=C\c3ccc(N(C)C)cc3)c(=O)n12		> 100						> 100 µM		> 100 µM				> 100		> 100	> 100 µM			
CCCCC(C)/C=C/C(=O)C1=C(O)/C(=C/C(=O)O)OC1=O (stereo unspecified)		> 100						> 100 µM		> 100 µM				> 100		> 100	> 100 µM			
C[P+](C)(C)C		> 100						> 100 µM		> 100 µM				> 100		> 100				
Nc1ccc(-c2cc(C(=O)Nc3nccs3)[nH]c(=S)n2)cc1		> 100								> 100 µM				> 100			> 100 µM			
S=c1o[nH]c(-c2ccccc2)c1C=Nc1ccccc1										> 100 µM				> 100			> 100 µM			
CC1(C)CCCC2(C)C3C(O)CC2(C)C(O)C31 (stereo unspecified)		> 100						> 100 µM		> 100 µM				> 100			> 100 µM			
CCc1cccc(C(C)C)c1NC(=O)CCl		> 100												> 100		> 100				
Cc1ccccc1NC(=O)/C=N/O		> 100						> 100 µM		> 100 µM				> 100		> 100	> 100 µM			
O=C1/C(=C/c2ccc3c(c2)OCCO3)CCC/C1=C\c1ccc2c(c1)OCCO2		44.6						92.1 µM		80 µM				> 100		85.8	62.1 µM			
Cc1cccc(C)c1NC(=O)CCC/C(CC(=O)c1ccc(F)cc1)=N\NC(=O)C(=O)NN		> 100								> 100 µM				> 100			> 100 µM			
